Experimental data taken from patent publication US20160374944A1, “COMPOSITIONS AND METHODS FOR TREATING AND PREVENTING CANCER BY TARGETING AND INHIBITING CANCER STEM CELLS” (priority 2011, published 2016).

Columns and labels:
[1] = test system: pancreatic cancer; settings: KrasG12D mice
[2] = test system: Prostate CSCs; assay: spheroid formation and cell viability in spheroids (trypan blue); format: cell-based, human; settings: 7 and 14 days, embelin 0-6 μM, rottlerin 0-2 μM
Method: (§1) In particular, embelin is shown to inhibit spheroid and colony formation, and induce caspase-3 and apoptosis. (A) Prostate CSCs were grown in CSC medium and treated with embelin (0-6 μM) for 7 days to obtain primary spheroids. At the end of incubation period, spheroids were collected, reseeded and treated with embelin for another week to obtain secondary spheroids. Cell viability in spheroids was measured by trypan blue assay at the end of 7 and 14 days. […] (B) Prostate CSCs were seeded in soft agar and treated with embelin (0-6 μM) for 21 days. […] (C and D) Activation of caspase-3 and induction of apoptosis is shown.
as §1, with “(A)” for “In particular, embelin is shown to inhibit spheroid and colony formation, and induce caspase-3 and apoptosis. (A)”, “rottlerin (0-2” for “embelin (0-6”, “rottlerin” for “embelin”, “apoptosis.” for “apoptosis is shown.”
The effects of embelin on growth of prostate CSCs was studied by measuring cell viability and colony formation, as shown in FIGS. 9A and 9B. […]

[3] = test system: Prostate CSCs; assay: gene expression by qRT-PCR; format: cell-based, human; settings: 24 h
Method: FIG. 15 is a graph showing that rottlerin inhibits the expression of survivin, XIAP, Bcl-2 and Bcl-XL in prostate CSCs. Prostate CSCs were treated with rottlerin (0-2 μM) for 24 h, and the expression of survivin, XIAP, Bcl-2 and Bcl-XL was measured by the q-RT-PCR. […] Data were normalized with GAPDH.
FIG. 16 is a graph showing the regulation by rottlerin of cMyc, Nanog, Oct3/4 and Sox-2 in prostate CSCs. Prostate CSCs were treated with rottlerin (0-1 μM) for 24 h. The expression of cMyc, Nanog, Oct3/4 and Sox-2 was measured by qRT-PCR. […] Data were normalized with GAPDH.
(§2) FIG. 17 graphs showing the regulation of Shh, Notch and TGFβ pathways by rottlerin. […] The expression of Patched-1, Patched-2, SMO, Gli1 and Gli2 was measured by qRT-PCR. […] Data were normalized with GAPDH. (D) Prostate CSCs were treated with rottlerin (0-1 μM) for 24 h. The expression of Notch1, Notch3 and JAG1 was measured by qRT-PCR. (E) TCF/LEF-1, Gli and Notch reporter activities. Prostate CSCs were transduced with a mixture of TCF/LEF1-, Gli-, or Notch-responsive firefly luciferase construct and Renilla luciferase construct (40:1) along with lipofectamine. After transduction, medium was changed and CSCs were treated with rottlerin (0-2 μM) for 24 h. […] (F) Immunofluorescence analysis of Gli1 and Gli2 expression in prostate CSCs. Green=Gli1 or Gli2; red=nucleus.

[4] = test system: Gli1 and Gli2 in prostate CSCs; assay: immunofluorescence analysis of Gli1 and Gli2 expression; format: cell-based, human; settings: measured by IFC
Method: as §2

SMILES: C[S+]([O-])CCCCN=C=S (stereo not drawn) [sulforaphane]
- pancreatic cancer progression [1]: inhibits the growth of pancreatic cancer progression

SMILES: CC(=O)c1c(O)c(C)c(O)c(Cc2c(O)c3c(c(C(=O)/C=C/c4ccccc4)c2O)OC(C)(C)C=C3)c1O [rottlerin]
- size of primary and secondary spheroids in suspension ([2]; data not shown): inhibited the size
- cell viability in spheroids ([2]; primary and secondary spheroids, trypan blue): inhibited
- expression of Bcl-2 ([3]; normalized with GAPDH): inhibited the expression
- expression of Bcl-XL ([3]; normalized with GAPDH): inhibited the expression
- expression of Gli1 ([3]; normalized with GAPDH): inhibited the expression
- expression of Gli2 ([3]; normalized with GAPDH): inhibited the expression
- expression of Nanog ([3]; normalized with GAPDH): inhibited the expression
- expression of Oct3/4 ([3]; normalized with GAPDH): inhibited the expression
- expression of Patched-1 ([3]; normalized with GAPDH): inhibited the expression
- expression of Patched-2 ([3]; normalized with GAPDH): inhibited the expression
- expression of SMO ([3]; normalized with GAPDH): inhibited the expression
- expression of Sox-2 ([3]; normalized with GAPDH): inhibited the expression
- expression of XIAP ([3]; normalized with GAPDH): inhibited the expression
- expression of cMyc ([3]; normalized with GAPDH): inhibited the expression
- expression of survivin ([3]; normalized with GAPDH): inhibited the expression
- expression of JAG1 ([3]; rottlerin 0-1 μM): inhibited the expression
- expression of Notch1 ([3]; rottlerin 0-1 μM): inhibited the expression
- expression of Notch3 ([3]; rottlerin 0-1 μM): inhibited the expression
- nuclear expression of constitutively active Gli1 [4]: inhibited the nuclear expression
- nuclear expression of constitutively active Gli2 [4]: inhibited the nuclear expression
